{"source": "patent US11096985B2", "about": "“Antimicrobial peptides, their variants and uses” (priority 2015, dated 2021)", "key": {"[1]": {"system": "clinical strains of Enterobacter cloacae", "assay": "MIC, clinical strains of Enterobacter cloacae", "format": "cell-based", "set-up": "unit: μg/ml", "conditions": "microdilution, Muller Hinton broth-cation adjusted, 0.02% BSA, 0.2% acetic acid", "method_in_brief": "(§1)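 MH broth; 5.0×10^5 cfu/ml; peptides 0.125–128 μg/ml; 37° C., 20–24 h; visual no-growth endpoint. Fungal MICs in potato dextrose broth.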"}, "[2]": {"system": "clinical strains of Staphylococcus aureus", "assay": "MIC, clinical strains of S. aureus", "format": "cell-based", "set-up": "unit: μg/ml", "conditions": "microdilution, Muller Hinton broth-cation adjusted, 0.02% BSA, 0.2% acetic acid", "method_in_brief": "as §1"}, "[3]": {"system": "clinical strains of Klebsiella pneumoniae", "assay": "MIC, clinical strains of K. pneumoniae", "format": "cell-based", "set-up": "unit: μg/ml", "conditions": "microdilution, Muller Hinton broth-cation adjusted, 0.02% BSA, 0.2% acetic acid", "method_in_brief": "as §1"}, "[4]": {"system": "clinical strains of Streptococcus pneumoniae", "assay": "MIC, clinical strains of Streptococcus pneumoniae", "format": "cell-based", "set-up": "unit: µg/mL", "conditions": "microdilution, Muller Hinton broth-cation adjusted, 0.02% BSA, 0.2% acetic acid", "method_in_brief": "as §1"}, "[5]": {"system": "clinical strains of Candida albicans", "assay": "MIC, clinical yeast strains, Candida albicans", "format": "cell-based", "set-up": "unit: μg/ml", "method_in_brief": "as §1"}, "[6]": {"system": "clinical strains of Serratia marcescens", "assay": "MIC, clinical strains of Serratia marcescens", "format": "cell-based", "set-up": "unit: µg/mL", "conditions": "microdilution, Muller Hinton broth-cation adjusted, 0.02% BSA, 0.2% acetic acid", "method_in_brief": "as §1"}, "[7]": {"system": "clinical strains of C. quillermondiae", "assay": "MIC, clinical yeast strains, C. quillermondiae", "format": "cell-based", "conditions": "C. quillermondiae clinical yeast strain 1", "method_in_brief": "as §1"}, "[8]": {"system": "clinical strains of Escherichia coli", "assay": "MIC, clinical strains of E. coli", "format": "cell-based", "set-up": "unit: μg/ml", "conditions": "microdilution, Muller Hinton broth-cation adjusted, 0.02% BSA, 0.2% acetic acid", "method_in_brief": "as §1"}, "[9]": {"system": "clinical strains of C. glabrata", "assay": "MIC, clinical yeast strains, C. glabrata", "format": "cell-based, Candida glabrata", "set-up": "unit: μg/ml", "method_in_brief": "as §1"}, "[10]": {"system": "clinical strains of Proteus mirabilis", "assay": "MIC, clinical strains of Proteus mirabilis", "format": "cell-based", "set-up": "unit: µg/mL", "conditions": "microdilution, Muller Hinton broth-cation adjusted, 0.02% BSA, 0.2% acetic acid", "method_in_brief": "as §1"}, "[11]": {"system": "clinical strains of C. parapsilosis", "assay": "MIC, clinical yeast strains, C. parapsilosis", "format": "cell-based, Candida parapsilosis", "set-up": "unit: μg/ml", "method_in_brief": "as §1"}, "[12]": {"system": "clinical strains of Pseudomonas aeruginosa", "assay": "MIC, clinical strains of P. aeruginosa", "format": "cell-based", "set-up": "unit: μg/ml", "conditions": "microdilution, Muller Hinton broth-cation adjusted, 0.02% BSA, 0.2% acetic acid", "method_in_brief": "as §1"}, "[13]": {"system": "clinical strains of Acinetobacter baumannii", "assay": "MIC, clinical strains of Acinetobacter baumannii", "format": "cell-based", "conditions": "microdilution, Muller Hinton broth-cation adjusted, 0.02% BSA, 0.2% acetic acid", "experimental": "Minimum inhibition concentrations (MICs) were determined against Escherichia coli (ATCC 25922), Staphylococcus aureus (ATCC 25923), Klebsiella pneumoniae (ATCC 10031) and Pseudomonas aeruginosa (ATCC 27853). Also clinical strains of E. coli, K. pneumoniae, E. cloacae, P. aeruginosa, Serratia marcescens, Proteus mirabilis, S. pneumoniae, Acinetobacter baumannii, A. johnsonii and S. aureus were used for MICs assays. Additionally, clinical strains of yeast including Candida albicans, C. glabrata, C. parapsilosis and C. quillermondiae were used. The susceptibility of these microorganisms to Chain peptides were determined using micro broth dilution assay. Colonies of the respective microorganism from Muller Hinton (MH) agar plates incubated overnight were suspended in MH broth media and final concentration of microorganism was adjusted to 5.0×10^5 cfu/ml. An aliquot of 10 μl of each Chain peptide, or gentamicin, tetracycline as reference antibiotics were added in differing concentrations along with 90 μl of bacterial suspension to 96 well polypropylene plates and incubated at 37° C. for 20 to 24 hours. Concentrations of Chain peptides and reference antibiotics ranged from 0.125 to 128 μg/ml and the MICs were recorded as the lowest concentration with no visual growth of bacteria. Similarly, antifungal MICs were tested in Potato dextrose broth.\nClinical strains of yeasts including Candida albicans, C. glabrata, C. parapsilosis and C. quillermondiae were also tested with the 12 Chain peptides. The minimum inhibitory concentration (MICs) varied between these peptides and are presented in Tables 4a, 4b, 4c and 5a, 5b, 5c. Peptides Chain 105, 201 and 308 are broad spectrum antimicrobials with MICs between 0.5-32 μg/ml against all the bacteria and yeasts tested, except Serratia marcescens and Proteus mirabilis, against which the MICs were between 64-128 μg/ml. Peptide Chain 306 has narrow spectrum activity against E.coli at 1 μg/ml and for the rest of the bacterial strains at >32 μg/ml (FIG. 10)."}}, "note": "Where a SMILES comes first, the peptide text is derived from it. [ ]: non-standard residue; d: D form."}
{"smiles": "CC[C@@H](C)[C@@H](NC(=O)[C@@H](CC(C)C)NC(=O)[C@@H](CCCNC(=N)N)NC(=O)[C@H](N)CCCNC(=N)N)C(=O)N[C@H](Cc1c[nH]c2ccccc12)C(=O)N[C@H](CCCNC(=N)N)C(=O)N[C@H](CCCNC(=N)N)C(=O)N[C@H](Cc1ccccc1)C(=O)N[C@H](CCCCN)C(=O)N[C@H](Cc1c[nH]c2ccccc12)C(=O)N[C@H](CC(C)C)C(=O)N[C@H](CCCNC(=N)N)C(=O)O", "note": "[Chain204D] (H-[dR][dR][dL][dI][dW][dR][dR][dF][dK][dW][dL][dR]-OH)", "values": [{"measurement": "Minimum inhibitory concentration", "setting": "[1]; Enterobacter cloacae clinical strain 1", "result": 4}, {"measurement": "Minimum inhibitory concentration", "setting": "[1]; Enterobacter cloacae clinical strain 2", "result": 8}, {"measurement": "Minimum inhibitory concentration", "setting": "[1]; Enterobacter cloacae clinical strain 3", "result": 4}, {"measurement": "Minimum inhibitory concentration", "setting": "[1]; Enterobacter cloacae clinical strain 4", "result": 8}, {"measurement": "Minimum inhibitory concentration", "setting": "[1]; Enterobacter cloacae clinical strain 5", "result": 2}, {"measurement": "Minimum inhibitory concentration", "setting": "[2]; Staphylococcus aureus clinical strain 1", "result": 1}, {"measurement": "Minimum inhibitory concentration", "setting": "[2]; Staphylococcus aureus clinical strain 2", "result": 2}, {"measurement": "Minimum inhibitory concentration", "setting": "[2]; Staphylococcus aureus clinical strain 3", "result": 2}, {"measurement": "Minimum inhibitory concentration", "setting": "[2]; Staphylococcus aureus clinical strain 4", "result": 1}, {"measurement": "Minimum inhibitory concentration", "setting": "[2]; Staphylococcus aureus clinical strain 5", "result": 1}, {"measurement": "Minimum inhibitory concentration", "setting": "[3]; Klebsiella pneumoniae clinical strain 1", "result": 8}, {"measurement": "Minimum inhibitory concentration", "setting": "[3]; Klebsiella pneumoniae clinical strain 2", "result": 4}, {"measurement": "Minimum inhibitory concentration", "setting": "[3]; Klebsiella pneumoniae clinical strain 3", "result": 16}, {"measurement": "Minimum inhibitory concentration", "setting": "[3]; Klebsiella pneumoniae clinical strain 4", "result": 4}, {"measurement": "Minimum inhibitory concentration", "setting": "[3]; Klebsiella pneumoniae clinical strain 5", "result": 2}, {"measurement": "Minimum inhibitory concentration", "setting": "[4]; Streptococcus pneumoniae clinical strain 1", "result": 4}, {"measurement": "Minimum inhibitory concentration", "setting": "[4]; Streptococcus pneumoniae clinical strain 2", "result": 4}, {"measurement": "Minimum inhibitory concentration", "setting": "[4]; Streptococcus pneumoniae clinical strain 3", "result": 4}, {"measurement": "Minimum inhibitory concentration", "setting": "[4]; Streptococcus pneumoniae clinical strain 4", "result": 4}, {"measurement": "Minimum inhibitory concentration", "setting": "[4]; Streptococcus pneumoniae clinical strain 5", "result": 4}, {"measurement": "Minimum inhibitory concentration", "setting": "[5]; Candida albicans clinical yeast strain 1", "result": 8}, {"measurement": "Minimum inhibitory concentration", "setting": "[5]; Candida albicans clinical yeast strain 2", "result": 8}, {"measurement": "Minimum inhibitory concentration", "setting": "[5]; Candida albicans clinical yeast strain 3", "result": 8}, {"measurement": "Minimum inhibitory concentration", "setting": "[5]; Candida albicans clinical yeast strain 4", "result": 8}, {"measurement": "Minimum inhibitory concentration", "setting": "[5]; Candida albicans clinical yeast strain 5", "result": 8}, {"measurement": "Minimum inhibitory concentration", "setting": "[6]; Serratia marcescens clinical strain 1", "result": ">128"}, {"measurement": "Minimum inhibitory concentration", "setting": "[6]; Serratia marcescens clinical strain 2", "result": ">128"}, {"measurement": "Minimum inhibitory concentration", "setting": "[6]; Serratia marcescens clinical strain 3", "result": 128}, {"measurement": "Minimum inhibitory concentration", "setting": "[6]; Serratia marcescens clinical strain 4", "result": ">128"}, {"measurement": "Minimum inhibitory concentration", "setting": "[6]; Serratia marcescens clinical strain 5", "result": ">128"}, {"measurement": "Minimum inhibitory concentration", "setting": "[7]", "result": 4}, {"measurement": "Minimum inhibitory concentration", "setting": "[8]; Escherichia coli clinical strain 1", "result": 8}, {"measurement": "Minimum inhibitory concentration", "setting": "[8]; Escherichia coli clinical strain 2", "result": 1}, {"measurement": "Minimum inhibitory concentration", "setting": "[8]; Escherichia coli clinical strain 3", "result": 1}, {"measurement": "Minimum inhibitory concentration", "setting": "[8]; Escherichia coli clinical strain 4", "result": 1}, {"measurement": "Minimum inhibitory concentration", "setting": "[8]; Escherichia coli clinical strain 5", "result": 1}, {"measurement": "Minimum inhibitory concentration", "setting": "[9]; C. glabrata clinical yeast strain 1", "result": 4}, {"measurement": "Minimum inhibitory concentration", "setting": "[9]; C. glabrata clinical yeast strain 2", "result": 8}, {"measurement": "Minimum inhibitory concentration", "setting": "[9]; C. glabrata clinical yeast strain 3", "result": 32}, {"measurement": "Minimum inhibitory concentration", "setting": "[9]; C. glabrata clinical yeast strain 4", "result": 32}, {"measurement": "Minimum inhibitory concentration", "setting": "[10]; Proteus mirabilis clinical strain 1", "result": ">128"}, {"measurement": "Minimum inhibitory concentration", "setting": "[10]; Proteus mirabilis clinical strain 2", "result": 32}, {"measurement": "Minimum inhibitory concentration", "setting": "[10]; Proteus mirabilis clinical strain 3", "result": 64}, {"measurement": "Minimum inhibitory concentration", "setting": "[10]; Proteus mirabilis clinical strain 4", "result": ">128"}, {"measurement": "Minimum inhibitory concentration", "setting": "[10]; Proteus mirabilis clinical strain 5", "result": ">128"}, {"measurement": "Minimum inhibitory concentration", "setting": "[11]; C. parapsilosis clinical yeast strain 1", "result": 4}, {"measurement": "Minimum inhibitory concentration", "setting": "[11]; C. parapsilosis clinical yeast strain 2", "result": 4}, {"measurement": "Minimum inhibitory concentration", "setting": "[11]; C. parapsilosis clinical yeast strain 3", "result": 8}, {"measurement": "Minimum inhibitory concentration", "setting": "[11]; C. parapsilosis clinical yeast strain 4", "result": 8}, {"measurement": "Minimum inhibitory concentration", "setting": "[12]; Pseudomonas aeruginosa clinical strain 1", "result": 4}, {"measurement": "Minimum inhibitory concentration", "setting": "[12]; Pseudomonas aeruginosa clinical strain 2", "result": 16}, {"measurement": "Minimum inhibitory concentration", "setting": "[12]; Pseudomonas aeruginosa clinical strain 3", "result": 8}, {"measurement": "Minimum inhibitory concentration", "setting": "[12]; Pseudomonas aeruginosa clinical strain 4", "result": 8}, {"measurement": "Minimum inhibitory concentration", "setting": "[12]; Pseudomonas aeruginosa clinical strain 5", "result": 4}, {"measurement": "Minimum inhibitory concentration", "setting": "[13]; Acinetobacter baumannii clinical strain 1", "result": 4}, {"measurement": "Minimum inhibitory concentration", "setting": "[13]; Acinetobacter baumannii clinical strain 2", "result": 4}, {"measurement": "Minimum inhibitory concentration", "setting": "[13]; Acinetobacter baumannii clinical strain 3", "result": 4}, {"measurement": "Minimum inhibitory concentration", "setting": "[13]; Acinetobacter baumannii clinical strain 4", "result": 4}, {"measurement": "Minimum inhibitory concentration", "setting": "[13]; Acinetobacter baumannii clinical strain 5", "result": 4}]}
